According to paper PMC7957516, “Biochemical Properties of Tyrosinase from Aspergillus terreus and Penicillium copticola; Undecanoic Acid from Aspergillus flavus, an Endophyte of Moringa oleifera, Is a Novel Potent Tyrosinase Inhibitor” (Molecules, 2021):
In brackets after ≈: the same amount, converted by molar mass.

Assays:
[1] = biological target: T1, tyrosinase from A. terreus; conditions: 50 mM L-tyrosine, Tris-HCl pH 7.0, 37 °C; 2 h preincubation with inhibitor at 30 °C
T1 construct: gene TYR

[2] = biological target: T2, tyrosinase from P. copticola; conditions: 50 mM L-tyrosine, Tris-HCl pH 7.0, 37 °C; 2 h preincubation with inhibitor at 30 °C; P. copticola not named in the value sentence, inferred as the second of the two enzymes
T2 construct: gene TYR

SMILES: O=c1cc(CO)occ1O [kojic acid]
- IC50 [1]: 21.5 µg/mL (≈ 151 µM)
- IC50 [2]: 15.1 µg/mL (≈ 106 µM)
